Source: patent publication US20240173432A1, “Compositions and Methods for Treatment of Myotonic Dystrophy Type 1 with CRISPR/SluCas9” (Vertex Pharmaceuticals Incorporated, priority 2021, published 2024)

Columns and labels:
[1] = system: CTG repeat in the 3′ UTR of human DMPK gene; experiment: Dual-cut screening: CTG repeat excision efficiency by loss-of-signal ddPCR; format: cell-based; conditions: sgRNA pair, primary DM1 patient myoblasts; for Excision efficiency (by ddPCR): 3 μM DNA-PKi Compound 6 for 48 hours; for Excision efficiency by ddPCR (Vehicle): vehicle (DMSO)
Description: (§1) RNPs were assembled with recombinant SluCas9 protein and chemically modified sgRNAs at a ratio of 1:3 (protein:sgRNA). For SINGLE-cut screening, RNP complexes were assembled with 30 pmol of SluCas9 and 90 pmol of sgRNA in P5 Primary Cell Nucleofector Solution (Lonza). After incubation at room temperature for 20 minutes, 10 μL of RNP complex were mixed with two hundred thousand of primary myoblasts resuspended in 10 μL of P5 Nucleofector Solution. For DOUBLE-cut screening, RNP complexes were first assembled for individual sgRNAs with 20 pmol of SluCas9 protein and 60 pmol of sgRNAs in 5 μL of P5 Nucleofector Solution. After incubation at room temperature for 20 minutes, the two RNP complexes (one for upstream sgRNA and one for downstream sgRNA) were mixed at 1:1 ratio and then further mixed with two hundred thousand of primary myoblasts resuspended in 10 μL of P5 Nucleofector Solution.
(§2) The Nucleofector 96-well Shuttle System (Lonza) was used to deliver the SluCa9/sgRNA RNPs into primary DM1 patient myoblasts using the nucleofection program CM138. Following nucleofection, myoblasts from each well of nucleofection shuttle were split into six wells of the 96-well cell culture plate (Greiner, 655090) coated with matrigel. The first three wells were treated with DMSO for 48 hrs before changing to fresh myoblast growth medium, and the other three wells were treated with 3 μM of DNA-PKi Compound 6 for 48 hrs before changing to fresh myoblast growth medium. 72 hrs post nucleofection, two wells of DMSO-treated myoblasts and two wells of DNA-PKi-treated myoblasts from each nucleofection were harvested for genomic DNA extraction using the Kingfisher Flex purification system (Thermal Fisher), whereas one well of DMSO-treated myoblasts and one well of DNA-PKi-treated myoblasts were stained for RNA foci by FISH staining.
The primers and probes of ddPCR are designed using the online primer design software Primer3Plus (http://www.bioinformatics.nl/cgi-bin/primer3plus/primer3plus.cgi). In some embodiments, two target primers/probe sets were used to detect CTG repeat excision, and a reference primers/probe set were used to amplify a region located in Exon 1 of human DMPK gene and to serve as a reference control for the target sets. The 24 μL of ddPCR reaction consists of 12 μL of Supermix for Probes (no dUTP) (Bio-Rad Laboratories), 1 μL of Reference primers mix (21.6 μM), 1 μL of Reference probe (6 μM), 1 μL of Target primers mix (21.6 μM), 1 μL of Target probe (6 μM), and 8 μL of sample genomic DNA. Droplets were generated using probe oil with the QX200 Droplet Generator (Bio-Rad Laboratories). Droplets were transferred to a 96-well PCR plate, sealed and cycled in a C1000 deep well Thermocycler (Bio-Rad Laboratories) under the following cycling protocol: 1 cycle at 95° C. for 10 min; 40 cycles of 94° C. for 30 see, and 58° C. for 1 min; 1 cycle at 98° C. for 10 min (for enzyme inactivation). The cycled plate was then transferred and read in the FAM and HEX channels using the Bio-Rad QX200 Droplet Reader (Bio-Rad Laboratories). ddPCR analysis is performed with the Bio-Rad QuantaSoft Pro Software.
(§3) To assess the efficiency of SluCas9 sgRNA pairs for inducing CTG repeat excision, Dual-cut screening was performed in which individual SluCas9 sgRNAs and recombinant SluCas9 protein were assembled into ribonucleoprotein (RNP) and delivered into primary DM1 patient myoblasts. Nucleofected myoblasts were treated with either DMSO (vehicle) or 3 μM of DNA-dependent Protein Kinase Inhibitor (DNA-PKi) Compound 6 for 48 hours. 72 hours post-nucleofection, myoblasts were subjected to either genomic DNA isolation or RNA foci staining by fluorescence in situ hybridization (FISH).
CRISPR repeat excision efficiency was assessed for each of the 88 pairs (FIG. 8A-B and Table 5). CTG repeat excision efficiency percentages are shown for vehicle (DMSO; white bars) and with DNA-PKi (black bars) (FIG. 8B and Table 5).

[2] = system: CUG foci in primary DM1 patient myoblasts; experiment: Dual-cut screening: FISH staining of CUG RNA foci; format: cell-based, human; conditions: sgRNA pair, primary DM1 patient myoblasts; for % of CUG foci free nuclei (DNA-PKi): 3 μM DNA-PKi Compound 6 for 48 hours; for % of CUG foci free nuclei (Vehicle): vehicle (DMSO)
Description: as §1, §2
Primary myoblasts were fixed for 15 min with 4% paraformaldehyde (PFA) and washed five times with 1×PBS for 10 min each at room temperature. Before staining, cells were permeabilized with 0.5% triton X-100 in 1×PBS for 5 min at room temperature, and then washed with 30% formamide and 2× saline-sodium citrate (SSC) mixture for 10 min at room temperature. Cells were then stained with 1 ng/μL of Cy3-PNA(CAG)5 probe (PNA Bio, F5001) diluted in 30% formamide, 2×SSC, 2 μg/mL BSA, 66 μg/mL yeast tRNA, and 2 mM vanadyl complex for 15 min at 80° C. Following probe staining, cells were then washed in 30% formamide and 2×SSC mixture for 30 min at 42° C., then washed in 30% formamide and 2×SSC mixture for 30 min at 37° C., and then washed in 1×SSC solution for 10 min at room temperature, and finally washed in 1×PBS for 10 min at room temperature. Cells were next stained with anti-MBNL1 antibody (Santa Cruz, 3A4) diluted in 1% bovine serum albumin (BSA) for overnight at 4° C., and washed twice with 1×PBS for 10 min each at room temperature. Cells were then incubated with the secondary antibody goat anti-rabbit Alexa 647 (Thermo Fisher, A32728) diluted in 1% BSA for 1 hr at room temperature, and washed twice with 1×PBS for 10 min each at room temperature. Next, cells were stained with Hoechst solution (Thermo Fisher, H3569) at 0.1 mg/ml for 5 min, and washed once with 1×PBS for 5 min. PBS was aspirated and fresh 100 μl of fresh PBS is added to each well. High-throughput acquisition of images was completed with the ImageXpress Micro Confocal High-Content Imaging System (Molecular Devices). RNA foci quantifications were accomplished with a customized analysis module of the MetaXpress program (Molecular Devices).
as §3, with “72 hours post-nucleofection, myoblasts were subjected to either genomic DNA isolation or RNA foci staining by fluorescence in situ hybridization (FISH).” left out

| Substance | Excision efficiency (by ddPCR) [1] | Excision efficiency by ddPCR (Vehicle) [1] | % of CUG foci free nuclei (DNA-PKi) [2] [%] | % of CUG foci free nuclei (Vehicle) [2] [%] |
| --- | --- | --- | --- | --- |
| SluU06 + SluD06 (guide 1 TGTCTTCGACTCCGGGGCCCCG; guide 2 CCAGGCTGAGGCCCTGACGTGG; guide RNA; listed as DNA, chemistry not fully specified) | 57.64 | 42.65 | 87.02 | 62.81 |
| SluU06 + SluD14 (guide 1 TGTCTTCGACTCCGGGGCCCCG; guide 2 ATGGGCAAACTGCAGGCCTGGG; guide RNA; listed as DNA, chemistry not fully specified) | 65.02 | 48.08 | 83.37 | 66.72 |
| SluU06 + SluD18 (guide 1 TGTCTTCGACTCCGGGGCCCCG; guide 2 TGGAGGATGGAACACGGACGGC; guide RNA; listed as DNA, chemistry not fully specified) | 64.53 | 45.61 | 87.79 | 69.25 |
| SluU06 + SluD32 (guide 1 TGTCTTCGACTCCGGGGCCCCG; guide 2 CTTGTGCATGACGCCCTGCTCT; guide RNA; listed as DNA, chemistry not fully specified) | 73.51 | 50.63 | 89.84 | 67.77 |
| SluU06 + SluD34 (guide 1 TGTCTTCGACTCCGGGGCCCCG; guide 2 CGCGCCAGACGCTCCCCAGAGC; guide RNA; listed as DNA, chemistry not fully specified) | 67.57 | 51.37 | 90.66 | 78.56 |
| SluU06 + SluD48 (guide 1 TGTCTTCGACTCCGGGGCCCCG; guide 2 GAGAGCAGCGCAAGTGAGGAGG; guide RNA; listed as DNA, chemistry not fully specified) | 63.33 | 45.89 | 89.46 | 66.88 |
| SluU06 + SluD56 (guide 1 TGTCTTCGACTCCGGGGCCCCG; guide 2 CCAGCCGGCTCCGCCCGCTTCG; guide RNA; listed as DNA, chemistry not fully specified) | 54.91 | 31.65 | 85.13 | 47.08 |
| SluU06 + SluD68 (guide 1 TGTCTTCGACTCCGGGGCCCCG; guide 2 CCTGTAGCCTGTCAGCGAGTCG; guide RNA; listed as DNA, chemistry not fully specified) | 62.99 | 47.38 | 89.4 | 64.01 |
| SluU06 + SluD73 (guide 1 TGTCTTCGACTCCGGGGCCCCG; guide 2 CCAAAACGTGGATTGGGGTTGT; guide RNA; listed as DNA, chemistry not fully specified) | 63.29 | 43.4 | 88.37 | 65.15 |
| SluU06 + SluD83 (guide 1 TGTCTTCGACTCCGGGGCCCCG; guide 2 GTGGGGACAGACAATAAATACC; guide RNA; listed as DNA, chemistry not fully specified) | 66.18 | 46.13 | 89.45 | 66.03 |
| SluU06 + SluD100 (guide 1 TGTCTTCGACTCCGGGGCCCCG; guide 2 GTCCAGAGCTTTGGGCAGATGG; guide RNA; listed as DNA, chemistry not fully specified) | 65.68 | 40.89 | 87.37 | 64.95 |
| SluU08 + SluD06 (guide 1 GCCCCGTTGGAAGACTGAGTGC; guide 2 CCAGGCTGAGGCCCTGACGTGG; guide RNA; listed as DNA, chemistry not fully specified) | 59.11 | 46.6 | 86.69 | 59.22 |
| SluU08 + SluD14 (guide 1 GCCCCGTTGGAAGACTGAGTGC; guide 2 ATGGGCAAACTGCAGGCCTGGG; guide RNA; listed as DNA, chemistry not fully specified) | 63.05 | 45.12 | 82.09 | 56.37 |
| SluU08 + SluD18 (guide 1 GCCCCGTTGGAAGACTGAGTGC; guide 2 TGGAGGATGGAACACGGACGGC; guide RNA; listed as DNA, chemistry not fully specified) | 63.55 | 50.56 | 90.44 | 67.06 |
| SluU08 + SluD32 (guide 1 GCCCCGTTGGAAGACTGAGTGC; guide 2 CTTGTGCATGACGCCCTGCTCT; guide RNA; listed as DNA, chemistry not fully specified) | 73.0215 | 50.87 | 90.91 | 74.1 |
| SluU08 + SluD34 (guide 1 GCCCCGTTGGAAGACTGAGTGC; guide 2 CGCGCCAGACGCTCCCCAGAGC; guide RNA; listed as DNA, chemistry not fully specified) | 69.47 | 58.11 | 91.15 | 77.93 |
